Measurements as given in patent US8927721B2, “Naphthyridine derivative” (Shionogi & Co., Ltd., priority 2010, dated 2015).

Legend:
[1] = molecular target: T1, Recombinant human BACE1 (Homo sapiens, UniProt P56817); test: Assay of BACE1 inhibitory activity; format: biochemical; conditions: Recombinant human BACE1, 30° C., 3 hours, pH 5.0; read-out: IC50 (50% inhibitory concentration against the enzymatic activity)
T1 construct: purchased R&D Systems
Procedure: 48.5 μL of substrate peptide solution (Biotin-XSEVNLDAEFRHDSGC-Eu: X=ε-amino-n-capronic acid, Eu=Europium cryptate) was added to each well of 96-hole half-area plate (a black plate: Costar), and after addition of 0.5 μl of the compound of the present invention (N,N′-dimethylformamide solution) and 1 μl of Recombinant human BACE1(R&D Systems), the reaction mixture was incubated at 30° C. for 3 hours. The substrate peptide was synthesized by reacting Cryptate TBPCOOH mono SMP (CIS bio international) with Biotin-XSEVNLDAEFRHDSGC (Peptide Institute, Inc.). The final concentrations of the substrate peptide and Recombinant human BACE1 were adjusted to 18 nmol/L and 7.4 nmol/L, respectively, and the reaction was performed in sodium acetate buffer (50 mmol/L sodium acetate, pH 5.0, 0.008% Triton X-100). After the incubation for reaction, 50 μl of 8.0 μg/ml Streptavidin-XL665 (CIS bio international) dissolved in phosphate buffer (150 mmol/L K2HPO4—KH2PO4, pH 7.0, 0.008% Triton X-100, 0.8 mol/L KF) was added to each well and left stand at 30° C. for 1 hour. After then, fluorescence intensity was measured (excitation wavelength: 320 nm, measuring wavelength: 620 nm and 665 nm) using Wallac 1420 multilabel counter (Perkin Elmer life sciences). Enzymatic activity was determined from counting ratio of each wavelength (10,000×Count 665/Count 620) and 50% inhibitory concentration against the enzymatic activity (IC50) was calculated.

[2] = system: Aβ production in Neuroblastoma SH-SY5Y cells (SH/APPwt); test: Measurement of β-amyloid (Aβ) production inhibiting effect in cell; format: cell-based; conditions: Homo sapiens, 24 hours, Amyloid β1-40 HTRF, read-out: IC50 (amount needed to inhibit Aβ production by 50%)
Procedure: Neuroblastoma SH-SY5Y cells (SH/APPwt) with human wild-type 13-APP excessively expressed therein were prepared at 8×10^5 cells/mL, and 150 μl portions thereof were inoculated into each well of a 96-well culture plate (Falcon). The cells were cultured for 2 hours at 37° C. in a 5% gaseous carbon dioxide incubator. Then, a solution which have been preliminarily prepared by adding and suspending the compound of the present invention (DMSO (dimethyl sulfoxide) solution) so as to be 2 μl/50 μl medium was added to the cell sap. Namely, the final DMSO concentration was 1%, and the amount of the cell culture was 200 μl. After the incubation was performed for 24 hours from the addition of the test compound, 100 μl of the culture supernatant was collected from each fraction. The amount of the Aβ in each fraction was measured.
The Aβ amount was measured as follows. 10 μl of a homogeneous time resolved fluorescence (HTRF) measurement reagent (Amyloid β1-40 peptide; IBA Molecular Holding, S.A.) and 10 μl of the culture supernatant were put into a 384-well half area microplate (black microplate, Costar) and mixed with each other, and then left standing overnight at 4° C. while the light was shielded. Then, the fluorescence intensity (excitation wavelength: 337 nm, measurement wavelength: 620 nm and 665 nm) was measured with Wallac 1420 multilabel counter (Perkin Elmer life sciences). The Aβ amount was determined from the count rate at each measurement wavelength (10000×Count 665/Count 620), and the amount needed to inhibit A6 production by 50% (IC50) was calculated from at least six different dosages.

[3] = Solubility test (turbidity, JP-I, JP-II); format: physicochemical; conditions: kinetic from dmso stock, turbidity after 4 hours, 2% DMSO
Procedure: A 2-fold dilution series (12 points) of a 10 mM solution of a compound of the present invention in DMSO was added to a medium (JP-I, JP-II) (2%), and solubility was assessed by 3 stages (High; >40 μM, Medium; 3-40 μM, Low; <3 μM) from a turbidity after 4 hours.

[4] = molecular target: CYP3A4 (Homo sapiens, UniProt P08684); test: CYP3A4 fluorescent MBI test; format: in vitro ADME; design: host or cells: Escherichia coli; conditions: pre-reaction time 0 or 30 minutes, substrate 7-BFC
Chain of CYP3A4 (P08684 whole entry): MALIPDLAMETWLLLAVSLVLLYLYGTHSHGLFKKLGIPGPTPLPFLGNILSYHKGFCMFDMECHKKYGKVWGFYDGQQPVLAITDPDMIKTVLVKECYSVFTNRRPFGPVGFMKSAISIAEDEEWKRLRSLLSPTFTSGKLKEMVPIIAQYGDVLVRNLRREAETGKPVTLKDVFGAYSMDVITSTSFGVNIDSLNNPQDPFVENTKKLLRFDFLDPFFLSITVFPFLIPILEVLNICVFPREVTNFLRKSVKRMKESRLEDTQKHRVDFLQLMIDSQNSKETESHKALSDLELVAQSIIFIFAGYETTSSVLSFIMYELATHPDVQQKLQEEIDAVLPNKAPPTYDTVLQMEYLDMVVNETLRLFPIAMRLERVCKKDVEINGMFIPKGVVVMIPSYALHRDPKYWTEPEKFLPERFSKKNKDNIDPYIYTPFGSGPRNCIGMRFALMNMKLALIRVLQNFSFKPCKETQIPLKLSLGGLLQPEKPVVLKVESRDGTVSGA
Procedure: The CYP3A4 fluorescent MBI test is a test of investigating enhancement of CYP3A4 inhibition of the compound of the present invention by a metabolism reaction. 7-benzyloxytrifluoromethylcoumarin (7-BFC) is debenzylated by the CYP3A4 enzyme (enzyme expressed in Escherichia coli) and a metabolite, 7-hydroxytrifluoromethylcoumarin (7-HFC) which emits fluorescent light is produced. The test is performed using 7-HFC production reaction as an index.
The reaction conditions are as follows: substrate, 5.6 μmol/L 7-BFC: pre-reaction time, 0 or 30 minutes; reaction time, 15 minutes; reaction temperature, 25° C. […]
An enzyme in a K-Pi buffer (pH 7.4) and the compound of the present invention solution as a pre-reaction solution were added to a 96-well plate at the composition of the pre-reaction, a part of it was transferred to another 96-well plate so that it was 1/10 diluted by a substrate in a K-Pi buffer, NADPH as a co-factor was added to initiate a reaction as an index (without preincubation) and, after a predetermined time of a reaction, acetonitrile/0.5 mol/L Tris (trishydroxyaminomethane)=4/1 was added to stop the reaction. […] For the plate on which each index reaction had been performed, a fluorescent value of 7-HFC which is a metabolite was measured with a fluorescent plate reader. […]

T1 sequence (P56817 46-501): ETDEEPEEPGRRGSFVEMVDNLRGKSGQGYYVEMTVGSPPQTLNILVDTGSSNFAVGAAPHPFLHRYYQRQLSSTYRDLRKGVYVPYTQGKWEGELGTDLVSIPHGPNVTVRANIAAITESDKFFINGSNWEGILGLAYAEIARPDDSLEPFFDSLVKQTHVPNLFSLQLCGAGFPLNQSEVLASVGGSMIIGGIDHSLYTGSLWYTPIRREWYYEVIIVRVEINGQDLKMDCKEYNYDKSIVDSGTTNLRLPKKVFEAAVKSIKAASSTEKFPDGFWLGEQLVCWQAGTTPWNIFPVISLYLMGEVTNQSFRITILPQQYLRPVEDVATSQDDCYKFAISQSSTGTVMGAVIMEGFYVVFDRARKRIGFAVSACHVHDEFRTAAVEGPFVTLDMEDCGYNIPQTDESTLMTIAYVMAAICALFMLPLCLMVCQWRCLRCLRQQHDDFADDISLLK

Row | Structure (SMILES) | IC50 [1] [nM] | other results
1 | COCC#CC(=O)Nc1ccc(F)c(C2(C)Cc3cnccc3C(N)=N2)c1 (stereo not drawn) [Compound I-28] | ≤ 3000 | IC50 [2]: ≤ 3000 nM
2 | CCCC#CC(=O)Nc1ccc(F)c(C2(C)Cc3cnccc3C(N)=N2)c1 (stereo not drawn) [Compound I-29] | ≤ 3000 | 
3 | CC1(c2cc(NC(=O)c3ccc(C(F)(F)F)cn3)ccc2F)Cc2ccncc2C(N)=N1 (stereo not drawn) [Compound I-23] | ≤ 1000 | 
4 | CC1(c2cc(NC(=O)C#CC3CC3)ccc2F)Cc2cnccc2C(N)=N1 (stereo not drawn) [Compound I-31] | ≤ 3000 | 
5 | CC1(c2cc(NC(=O)c3ccc(C(F)(F)F)cn3)ccc2F)Cc2c(F)cncc2C(N)=N1 (stereo not drawn) [Compound I-19] | ≤ 1000 | 
6 | CC1(c2cc(NC(=O)c3ccc(C#N)cn3)ccc2F)Cc2cncc(F)c2C(N)=N1 (stereo not drawn) [Compound I-6] | ≤ 1000 | 
7 | Cc1cnc(C(=O)Nc2ccc(F)c(C3(C)Cc4ccncc4C(N)=N3)c2)cn1 (stereo not drawn) [Compound I-25] | ≤ 1000 | 
8 | CCCCC#CC(=O)Nc1ccc(F)c(C2(C)Cc3cnccc3C(N)=N2)c1 (stereo not drawn) [Compound I-32] | ≤ 3000 | 
9 | CC1(c2cc(NC(=O)c3ncc(F)cc3F)ccc2F)Cc2cnccc2C(N)=N1 (stereo not drawn) [Compound I-12] | ≤ 1000 | 
10 | CC1(c2cc(NC(=O)c3ccc(Cl)cn3)ccc2F)Cc2cnccc2C(N)=N1 (stereo not drawn) [Compound I-11] | ≤ 1000 | 
11 | CC#CCOc1cnc(C(=O)Nc2ccc(F)c(C3(C)Cc4cnccc4C(N)=N3)c2)cn1 (stereo not drawn) [Compound I-16] | ≤ 1000 | 
12 | CC1(c2cc(NC(=O)c3ccc(C#N)cn3)ccc2F)Cc2c(F)cncc2C(N)=N1 (stereo not drawn) [Compound I-9] | ≤ 1000 | solubility at 4 h ([3]; JP-I medium, pH 1.2, simulated gastric fluid, JP-I): > 40 µM; solubility at 4 h ([3]; JP-II medium, pH 6.8, aqueous buffer, JP-II): > 40 µM
13 | CCC#CC(=O)Nc1ccc(F)c(C2(C)Cc3cnccc3C(N)=N2)c1 (stereo not drawn) [Compound I-33] | ≤ 1000 | 
14 | CC1(c2cc(NC(=O)c3ncc(F)cc3F)ccc2F)Cc2c(F)cncc2C(N)=N1 (stereo not drawn) [Compound I-18] | ≤ 1000 | 
15 | CC1(c2cc(NC(=O)c3ccc(C(F)(F)F)cn3)ccc2F)Cc2cnccc2C(N)=N1 (stereo not drawn) [Compound I-13] | ≤ 1000 | 
16 | COc1cnc(C(=O)Nc2ccc(F)c(C3(C)Cc4ccncc4C(N)=N3)c2)cn1 (stereo not drawn) [Compound I-24] | ≤ 1000 | 

Continued, in another order:

Row | IC50 [1] [nM] | Structure (SMILES) | other results
17 | ≤ 1000 | CC1(c2cc(NC(=O)c3ccc(C#N)cn3)ccc2F)Cc2c(ccnc2F)C(N)=N1 (stereo not drawn) [Compound I-10] | 
18 | ≤ 1000 | CC#CCOc1cnc(C(=O)Nc2ccc(F)c(C3(C)Cc4ccncc4C(N)=N3)c2)cn1 (stereo not drawn) [Compound I-26] | 
19 | ≤ 1000 | COc1cnc(C(=O)Nc2ccc(F)c(C3(C)Cc4cnccc4C(N)=N3)c2)cn1 (stereo not drawn) [Compound I-14] | 
20 | 308 | CC#CC(=O)Nc1ccc(F)c(C2(C)Cc3cnccc3C(N)=N2)c1 (stereo not drawn) [Compound I-27] | 
21 | ≤ 1000 | CC#CCOc1cnc(C(=O)Nc2ccc(F)c(C3(C)Cc4c(F)cncc4C(N)=N3)c2)cn1 (stereo not drawn) [Compound I-22] | 
22 | ≤ 1000 | Cc1cnc(C(=O)Nc2ccc(F)c(C3(C)Cc4cnccc4C(N)=N3)c2)cn1 (stereo not drawn) [Compound I-15] | 
23 | ≤ 1000 | CC1(c2cc(NC(=O)c3ccc(C#N)cn3)ccc2F)Cc2ncc(F)cc2C(N)=N1 (stereo not drawn) [Compound I-7] | IC50 [2]: 2 nM
24 | ≤ 1000 | CC1(c2cc(NC(=O)c3ccc(C#N)cn3)ccc2F)Cc2cccnc2C(N)=N1 (stereo not drawn) [Compound I-4] | 
25 | ≤ 1000 | CC1(c2cc(NC(=O)c3ccc(Cl)cn3)ccc2F)Cc2c(F)cncc2C(N)=N1 (stereo not drawn) [Compound I-17] | 
26 | ≤ 1000 | CC1(c2cc(NC(=O)c3ccc(Cl)cn3)ccc2F)Cc2ccncc2C(N)=N1 (stereo not drawn) [Compound I-3] | 
27 | ≤ 1000 | Cc1cnc(C(=O)Nc2ccc(F)c(C3(C)Cc4c(F)cncc4C(N)=N3)c2)cn1 (stereo not drawn) [Compound I-21] | 
28 | ≤ 1000 | COc1cnc(C(=O)Nc2ccc(F)c(C3(C)Cc4c(F)cncc4C(N)=N3)c2)cn1 (stereo not drawn) [Compound I-20] | 
29 | ≤ 1000 | CC#CC(=O)Nc1ccc(F)c(C2(C)Cc3c(F)cncc3C(N)=N2)c1 (stereo not drawn) [Compound I-34] | IC50 [2]: 20 nM
30 | ≤ 1000 | CC1(c2cc(NC(=O)c3ccc(C#N)cn3)ccc2F)Cc2ccncc2C(N)=N1 (stereo not drawn) [Compound I-8] | 
31 | 147 | CC1(c2cc(NC(=O)C#Cc3ccccc3)ccc2F)Cc2cnccc2C(N)=N1 (stereo not drawn) [Compound I-30] | IC50 [2]: 46 nM
32 | 54 | CC1(c2cc(NC(=O)c3ccc(C#N)cn3)ccc2F)Cc2ncccc2C(N)=N1 (stereo not drawn) [Compound I-1] | CYP3A4 fluorescent MBI (difference between IC50 values without and with preincubation) [4]: (−) (when the difference is 3 μM or less, this was defined as (−))
